Test results: EP0103381B1, “Substituted anthra(1,9-cd)pyrazol-6(2H)-ones” (WARNER-LAMBERT COMPANY, priority 1982, dated 1984)

Tested on: lymphocytic leukemia P388
Test: in vivo lymphocytic leukemia P388 test
Parameters: species or system mice
Conditions: Mus musculus, P388, ip, 720 h, two single doses four days apart, read-out: T/C × 100 (Percent); for response vs control in vivo at 6.25 mg/kg: P388, Dose 6.25 mg/kg intraperitoneally; for response vs control in vivo at 12.5 mg/kg: P388, Dose 12.5 mg/kg intraperitoneally; for response vs control in vivo at 3.12 mg/kg: P388, Dose 3.12 mg/kg intraperitoneally; for response vs control in vivo at 50 mg/kg: P388, Dose 50 mg/kg intraperitoneally; for response vs control in vivo at 25 mg/kg: P388, Dose 25 mg/kg intraperitoneally; for response vs control in vivo at 100 mg/kg: P388, Dose 100 mg/kg intraperitoneally
Procedure: The in vivo lymphocytic leukemia P388 test is carried out by the United States National Cancer Institute. The animals used are either male or female CD2F, mice. There are six to seven animals per test group. The tumor transplant is by intraperitoneal injection of dilute ascitic fluid containing cells of lymphocytic leukemia P388. The test compounds are administered intraperitoneally in two single doses with a four-day interval between doses at various dose levels following tumor inoculation. The animals are weighed and survivors are recorded on a regular basis for 30 days. A ratio of survival time for treated (T)/ control (C) animals is calculated. The criterion for efficacy is T/C x 100 > 125%. The positive control compound in this test is 1,4-dihydroxy-5,8-[bis[[2-[(2-hydroxyethyl)amino]-ethyl]amino]-9,10-anthracene- dione given at dosages ranging from 12.0 to 0.075 mg/kg. See Cancer Chemotherapy Reports, Part 3, 3, 1 (1972) for a comprehensive discussion of the protocol.

Structure (SMILES): CSCCn1nc2c3c(c(NCCNCCO)ccc31)C(=O)c1c(O)ccc(O)c1-2 [Example 48]
- response vs control in vivo at 6.25 mg/kg: 140%
- response vs control in vivo at 12.5 mg/kg: 132%

Structure (SMILES): CN(C)CCNCCn1nc2c3c(c(NCCNCCO)ccc31)C(=O)c1c(O)ccc(O)c1-2 [Example 50, 2-[2-[[2-(Dimethylamino)ethyl]amino]ethyl]-5-[[2-[(2-hydroxyethyl)amino]ethyl]amino]-7,10-dihydroxyanthra[1,9-cd]pyrazol-6(2H)-one]
- response vs control in vivo at 3.12 mg/kg: 207%
- response vs control in vivo at 6.25 mg/kg: 188%
- response vs control in vivo at 50 mg/kg: 226%

Structure (SMILES): CN(CCO)CCn1nc2c3c(c(NCCNCCO)ccc31)C(=O)c1c(O)ccc(O)c1-2 [Example 51, 7,10-Dihydroxy-5-[[2-[(2-hydroxyethyl)amino]ethyl]amino]-2-[2-[(2-hydroxyethyl)-methylamino]ethyl]anthra[1,9-cd]pyrazol-6(2H)-one]
- response vs control in vivo at 3.12 mg/kg: 184%
- response vs control in vivo at 6.25 mg/kg: 182%
- response vs control in vivo at 12.5 mg/kg: 203%

Structure (SMILES): O=C1c2c(O)ccc(O)c2-c2nn(CCCNCCO)c3ccc(NCCNCCO)c1c23 [Example 52, 7,10-Dihydroxy-5-[[2-[(2-hydroxyethyl)amino]ethyl]amino]-2-[3-((2-hydroxyethyi)amino]propyl]anthra[1,9-cd]pyrazol-6(2H)-one]
- response vs control in vivo at 12.5 mg/kg: 157%
- response vs control in vivo at 25 mg/kg: 183%
- response vs control in vivo at 100 mg/kg: 259%

Structure (SMILES): NCCCNc1ccc2c3c(nn2CCCNCCO)-c2c(O)ccc(O)c2C(=O)c13 [Example 53]
- response vs control in vivo at 50 mg/kg: 160%

Structure (SMILES): NCCNCCNc1ccc2c3c(nn2CCNCCO)-c2c(O)ccc(O)c2C(=O)c13 [Example 66, 5-[[2-[(2-Aminoethyl)amino]ethyl]amino]-7,10-dihydroxy-2-[2-[(2-hydroxyethyl)amino]ethyl]anthra[1,9-cd]pyrazol-6(2H)-one]
- response vs control in vivo at 12.5 mg/kg: 233%
- response vs control in vivo at 25 mg/kg: 221%

Structure (SMILES): O=C1c2c(O)ccc(O)c2-c2nn(CCNCCO)c3ccc(NCCN(CCO)CCO)c1c23 [Example 67, 5-[[2-[Bis(2-hydroxyethyl)amino]ethyl]amino]-7,10-dihydroxy-2-[2-[(2-hydroxyethyl)-amino]ethyl]anthra(1,9-cd]pyrazol-6(2H)-one]
- response vs control in vivo at 12.5 mg/kg: 158%
- response vs control in vivo at 25 mg/kg: 187%

Structure (SMILES): O=C1c2c(O)ccc(O)c2-c2nn(CCNCCO)c3ccc(NCCCN(CCO)CCO)c1c23 [Example 68]
- response vs control in vivo at 25 mg/kg: 163%
- response vs control in vivo at 50 mg/kg: 167%
- response vs control in vivo at 100 mg/kg: 192%

Structure (SMILES): NCCCNCCCCNCCCNc1ccc2c3c(nn2CCNCCO)-c2c(O)ccc(O)c2C(=O)c13 [Example 69, 5-[(3-[[4-[(3-Aminopropyl)amino]butyl]amino]propyl]amino]-7,10-dihydroxy-2-[2-[(2-hydroxyethyl)-amino]ethyl]anthra(1,9-cd]pyrazol-6(2H)-one]
- response vs control in vivo at 6.25 mg/kg: 127%

Structure (SMILES): CNCCNc1ccc2c3c(nn2CCNCCO)-c2c(O)ccc(O)c2C(=O)c13 [Example 70, 7,10-Dihydroxy-2-[2-[(2-hydraxyethyl)amino]ethyl]-5-[[2-(methylamino)ethyl]amino]anthra[1,9-cd]pyrazol-6(2H)-one]
- response vs control in vivo at 6.25 mg/kg: 277%
- response vs control in vivo at 12.5 mg/kg: 277%

Structure (SMILES): O=C1c2c(O)ccc(O)c2-c2nn(CC(O)CO)c3ccc(NCCNCCO)c1c23 (stereo not shown) [Example 78, 2-(2,3-Dihydroxypropyl)-7,10-dihydroxy-5-[[2-[(2-hydroxyethyl)amino]ethyl]amino]anthra[1,9-cd]pyrazol-6(2H)-one]
- response vs control in vivo at 25 mg/kg: 184%
- response vs control in vivo at 50 mg/kg: 177%
- response vs control in vivo at 100 mg/kg: 208%
- response vs control in vivo at 200 mg/kg (P388, Dose 200 mg/kg intraperitoneally): 218%

Structure (SMILES): O=C1c2c(O)cc(O)c(O)c2-c2nn(CCNCCO)c3ccc(NCCNCCO)c1c23 [Example 86, 7,9,10-Trihydroxy-2-[2-[(2-hydroxyethyl)amino]ethyl]-5-[[2-[(2-hydroxyethyl)amino]lethyl]amino]-anthra[1,9-cd]pyrazol-6(2H)-one]
- response vs control in vivo at 1.56 mg/kg (P388, Dose 1.56 mg/kg intraperitoneally): 155%
- response vs control in vivo at 3.12 mg/kg: 165%
